Experimental data as given in patent US9255100B2 (BAYER INTELLECTUAL PROPERTY GMBH, priority 2010, dated 2016).

target: T1, N-terminally GST-tagged human full length recombinant Mps-1 kinase (Homo sapiens, UniProt P33981); assay: Mps-1 kinase assay (TR-FRET); type: biochemical; conditions: Mps1 IC50 [nM], 10 μM ATP, 1 μM peptide substrate, 60 min at 22° C.
T1 construct: N-terminally GST-tagged human full length recombinant Mps-1 kinase; purchased Invitrogen, Karslruhe, Germany PV4071
T1 sequence (P33981 1-857): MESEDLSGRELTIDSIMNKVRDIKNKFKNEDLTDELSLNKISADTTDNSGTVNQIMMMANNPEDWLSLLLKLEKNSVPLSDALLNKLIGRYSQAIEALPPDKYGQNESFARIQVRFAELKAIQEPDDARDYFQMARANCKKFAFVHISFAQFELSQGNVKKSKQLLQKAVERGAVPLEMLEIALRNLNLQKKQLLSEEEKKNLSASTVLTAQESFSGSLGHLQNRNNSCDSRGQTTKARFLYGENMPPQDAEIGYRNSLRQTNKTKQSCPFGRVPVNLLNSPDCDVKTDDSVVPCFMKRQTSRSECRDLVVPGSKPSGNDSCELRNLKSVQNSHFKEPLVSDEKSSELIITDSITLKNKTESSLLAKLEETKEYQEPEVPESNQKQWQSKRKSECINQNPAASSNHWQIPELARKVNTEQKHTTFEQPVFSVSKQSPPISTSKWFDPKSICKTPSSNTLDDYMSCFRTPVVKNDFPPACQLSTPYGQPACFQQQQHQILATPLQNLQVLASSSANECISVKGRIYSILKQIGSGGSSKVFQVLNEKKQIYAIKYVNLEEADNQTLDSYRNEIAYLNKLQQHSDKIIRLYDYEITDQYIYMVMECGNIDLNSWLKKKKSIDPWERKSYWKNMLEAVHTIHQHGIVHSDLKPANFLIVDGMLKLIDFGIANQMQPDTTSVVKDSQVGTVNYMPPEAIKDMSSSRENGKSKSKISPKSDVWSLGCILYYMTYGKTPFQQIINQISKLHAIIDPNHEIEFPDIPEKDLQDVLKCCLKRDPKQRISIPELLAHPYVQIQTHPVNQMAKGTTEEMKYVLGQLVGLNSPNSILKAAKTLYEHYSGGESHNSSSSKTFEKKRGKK
Outline: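 GST-tagged full-length recombinant Mps-1 at about 1 nM final, adjusted per lot for linear range, phosphorylated a biotinylated peptide. Product bound Eu-anti-phospho(Ser/Thr) antibody over 1 h at 22° C and was read by TR-FRET to streptavidin-XLent. Compounds scored for kinase inhibition.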

Row | SMILES | IC50
1 | Cc1cccc(-c2cc(NCC(C)C)c3ncc(-c4ccc(C(=O)NC5CC5)cc4)n3n2)c1 [Example 105, N-cyclopropyl-4-{6-(3-methylphenyl)-8-[(2-methylpropyl)amino]imidazo[1,2-b]pyridazin-3-yl}benzamide] | 3.5 nM
2 | Cc1cccc(-c2cc(NCC(C)C)c3ncc(-c4ccc(C(=O)NC5CC5)cc4)n3n2)c1C [Example 106, N-cyclopropyl-4-{6-(2,3-dimethylphenyl)-8-[(2-methylpropyl)amino]imidazo[1,2-b]pyridazin-3-yl}benzamide] | 8.9 nM
3 | CC(=O)Nc1ccccc1-c1cc(NCC(C)C)c2ncc(-c3ccc(C(=O)NC4CC4)cc3)n2n1 [Example 107, 4-{6-[2-(Acetylamino)phenyl]-8-[(2-methylpropyl)amino]imidazo[1,2-b]pyridazin-3-yl}-N-cyclopropylbenzamide] | 35.5 nM
4 | CC(C)CNc1cc(-c2cnc3ccccc3c2)nn2c(-c3ccc(C(=O)NC4CC4)cc3)cnc12 [Example 108, N-cyclopropyl-4-{8-[(2-methylpropyl)amino]-6-(quinolin-3-yl)imidazo[1,2-b]pyridazin-3-yl} benzamide] | 7 nM
5 | CC(C)CNc1cc(-c2ccnc3ccccc23)nn2c(-c3ccc(C(=O)NC4CC4)cc3)cnc12 [Example 112, N-cyclopropyl-4-{8-[(2-methylpropyl)amino]-6-(quinolin-4-yl)imidazol [1,2-b]pyridazin-3-yl} benzamide] | 5.1 nM
6 | CC(C)CNc1cc(-c2cncc3ccccc23)nn2c(-c3ccc(C(=O)NC4CC4)cc3)cnc12 [Example 115, N-cyclopropyl-4-{6-(isoquinolin-4-yl)-8-[(2-methylpropyl)amino]imidazo[1,2-b]pyridazin-3-yl}benzamide] | 27.5 nM
7 | CC(C)CNc1cc(-c2ccc(C(=O)NC3CC3)cc2)nn2c(-c3ccc(C(=O)NC4CC4)cc3)cnc12 [Example 116, 4,4′-{8-[(2-Methylpropyl)amino]imidazo[1,2-b]pyridazine-3,6-diyl} bis(N-cyclopropylbenzamide)] | 4 nM
8 | CC(C)CNc1cc(-c2cnn(C)c2)nn2c(-c3ccc(C(=O)NC4CC4)cc3)cnc12 [Example 117, N-cyclopropyl-4-{8-[(2-methylpropyl)amino]-6-(1-methyl-1H-pyrazol-4-yl)imidazo[1,2-b]pyridazin-3-yl}benzamide] | 3.3 nM
9 | CC(C)CNc1cc(-c2cccc3cnccc23)nn2c(-c3ccc(C(=O)NC4CC4)cc3)cnc12 [Example 118, N-cyclopropyl-4-{6-(isoquinolin-5-yl)-8-[(2-methylpropyl)amino]imidazo[1,2-b]pyridazin-3-yl}benzamide] | 4.3 nM
10 | CC(C)CNc1cc(-c2ccc(C(F)(F)F)cc2)nn2c(-c3ccc(C(=O)NC4CC4)cc3)cnc12 [Example 123, N-cyclopropyl-4-{8-[(2-methylpropyl)amino]-6-[4-(trifluoromethyl)phenyl]imidazo[1,2-b]pyridazin-3-yl}benzamide] | 7.6 nM
11 | CC(C)CNc1cc(-c2cccc(Cl)c2)nn2c(-c3ccc(C(=O)NC4CC4)cc3)cnc12 [Example 124, 4-{6-(3-Chlorophenyl)-8-[(2-methylpropyl)amino]imidazo[1,2-b]pyridazin-3-yl}-N-cyclopropylbenzamide] | 4.7 nM
12 | COc1cccc(-c2cc(NCC(C)C)c3ncc(-c4ccc(C(=O)NC5CC5)cc4)n3n2)c1 [Example 125, N-cyclopropyl-4-{6-(3-methoxyphenyl)-8-[(2-methylpropyl)amino]imidazo[1,2-b]pyridazin-3-yl}benzamide] | 3.8 nM
13 | CC(C)CNc1cc(-c2cc3ccccc3o2)nn2c(-c3ccc(C(=O)NC4CC4)cc3)cnc12 [Example 127, 4-{6-(1-Benzofuran-2-yl)-8-[(2-methylpropyl)amino]imidazo[1,2-b]pyridazin-3-yl}-N-cyclopropylbenzamide] | 40 nM
14 | COc1ccccc1-c1cc(NCC(C)C)c2ncc(-c3ccc(C(=O)NC4CC4)cc3)n2n1 [Example 129, N-cyclopropyl-4-{6-(2-methoxyphenyl)-8-[(2-methylpropyl)amino]imidazo[1,2-b]pyridazin-3-yl}benamide] | 3.3 nM
15 | CC(C)CNc1cc(-c2ccc(-c3ccccc3)cc2)nn2c(-c3ccc(C(=O)NC4CC4)cc3)cnc12 [Example 130, 4-{6-(Biphenyl-4-yl)-8-[(2-methylpropyl)amino]imidazo[1,2-b]pyridazin-3-yl}-N-cyclopropylbenzamide] | 5.9 nM
16 | CC(C)CNc1cc(-c2cccc(Cl)c2Cl)nn2c(-c3ccc(C(=O)NC4CC4)cc3)cnc12 [Example 131, N-cyclopropyl-4-{6-(2,3-dichlorophenyl)-8-[(2-methylpropyl)amino]imidazo[1,2-b]pyridazin-3-yl}benzamide] | 10 nM

These reach a lower IC50. Values come first.

Row | IC50 | SMILES
17 | < 1 nM | CC(C)CNc1cc(-c2ccc(F)cc2)nn2c(-c3ccc(C(=O)NC4CC4)cc3)cnc12 [Example 104, N-cyclopropyl-4-{6-(4-fluorophenyl)-8-[(2-methylpropyl)amino]imidazo[1,2-b]pyridazin-3-yl}benzamide]
18 | 2.1 nM | CC(C)CNc1cc(-c2ccc(C(=O)N(C)C)cc2)nn2c(-c3ccc(C(=O)NC4CC4)cc3)cnc12 [Example 109, 4-{3-[4-(Cyclopropylcarbamoyl)phenyl]-8-[(2-methylpropyl)amino]imidazo[1,2-b]pyridazin-6-yl}-N,N-dimethylbenzamide]
19 | 1.3 nM | Cc1ccccc1-c1cc(NCC(C)C)c2ncc(-c3ccc(C(=O)NC4CC4)cc3)n2n1 [Example 110]
20 | 2 nM | CC(C)CNc1cc(-c2ccc(C(N)=O)cc2)nn2c(-c3ccc(C(=O)NC4CC4)cc3)cnc12 [Example 113, 4-{6-(4-Carbamoylphenyl)-8-[(2-methylpropyl)amino]imidazo[1,2-b]pyridazin-3-yl}-N-cyclopropylbenzamide]
21 | < 1 nM | CC(C)CNc1cc(-c2cccc(C(N)=O)c2)nn2c(-c3ccc(C(=O)NC4CC4)cc3)cnc12 [Example 114, 4-{6-(3-Carbamoylphenyl)-8-[(2-methylpropyl)amino]imidazo[1,2-b]pyridazin-3-yl}-N-cyclopropylbenzamide]
22 | < 1 nM | CNC(=O)c1cccc(-c2cc(NCC(C)C)c3ncc(-c4ccc(C(=O)NC5CC5)cc4)n3n2)c1 [Example 119, 3-{3-[4-(Cyclopropylcarbamoyl)phenyl]-8-[(2-methylpropyl)amino]imidazo[1,2-b]pyridazin-6-yl}-N-methylbenzamide]
23 | 2.5 nM | CC(C)CNc1cc(-c2ccc(C(=O)NC(C)C)cc2)nn2c(-c3ccc(C(=O)NC4CC4)cc3)cnc12 [Example 120, 4-{3-[4-(Cyclopropylcarbamoyl)phenyl]-8-[(2-methylpropyl)amino]imidazo[1,2-b]pyridazin-6-yl}-N-(propan-2-yl)benzamide]
24 | 1.8 nM | CC(C)CNc1cc(-c2cccs2)nn2c(-c3ccc(C(=O)NC4CC4)cc3)cnc12 [Example 121, N-cyclopropyl-4-{8-[(2-methylpropyl)amino]-6-(thiophen-2-yl)imidazo [1,2-b]pyridazin-3-yl} benzamide]
25 | 2.9 nM | CC(C)CNc1cc(-c2ccsc2)nn2c(-c3ccc(C(=O)NC4CC4)cc3)cnc12 [Example 122, N-cyclopropyl-4-{8-[(2-methylpropyl)amino]-6-(thiophen-3-yl)imidazo [1,2-b]pyridazin-3-yl} benzamide]
26 | 2 nM | CC(=O)Nc1cccc(-c2cc(NCC(C)C)c3ncc(-c4ccc(C(=O)NC5CC5)cc4)n3n2)c1 [Example 126, 4-{6-[3-(Acetylamino)phenyl]-8-[(2-methylpropyl)amino]imidazo[1,2-b]pyridazin-3-yl}-N-cyclopropylbenzamide]
27 | 2.7 nM | CC(C)CNc1cc(-c2cccc(F)c2)nn2c(-c3ccc(C(=O)NC4CC4)cc3)cnc12 [Example 128, N-cyclopropyl-4-{6-(3-fluorophenyl)-8-[(2-methylpropyl)amino]imidazo[1,2-b]pyridazin-3-yl}benzamide]
28 | 1.5 nM | CC(C)CNc1cc(-c2ccccc2F)nn2c(-c3ccc(C(=O)NC4CC4)cc3)cnc12 [Example 132, N-cyclopropyl-4-{6-(2-fluorophenyl)-8-[(2-methylpropyl)amino]imidazo[1,2-b]pyridazin-3-yl}benzamide]
29 | < 1 nM | CC(C)CNc1cc(-c2ccc(CO)cc2)nn2c(-c3ccc(C(=O)NC4CC4)cc3)cnc12 [Example 133, N-cyclopropyl-4-{6-[4-(hydroxymethyl)phenyl]-8-[(2-methylpropyl)amino]imidazo[1,2-b]pyridazin-3-yl}benzamide]
